The target of assay [1] is T1, ESb mouse lymphoma heparanase (Mus musculus, UniProt Q6YGZ1).
T1 construct: endogenous in cells; host or cells: ESb mouse lymphoma cells
T1 sequence (Q6YGZ1 28-535): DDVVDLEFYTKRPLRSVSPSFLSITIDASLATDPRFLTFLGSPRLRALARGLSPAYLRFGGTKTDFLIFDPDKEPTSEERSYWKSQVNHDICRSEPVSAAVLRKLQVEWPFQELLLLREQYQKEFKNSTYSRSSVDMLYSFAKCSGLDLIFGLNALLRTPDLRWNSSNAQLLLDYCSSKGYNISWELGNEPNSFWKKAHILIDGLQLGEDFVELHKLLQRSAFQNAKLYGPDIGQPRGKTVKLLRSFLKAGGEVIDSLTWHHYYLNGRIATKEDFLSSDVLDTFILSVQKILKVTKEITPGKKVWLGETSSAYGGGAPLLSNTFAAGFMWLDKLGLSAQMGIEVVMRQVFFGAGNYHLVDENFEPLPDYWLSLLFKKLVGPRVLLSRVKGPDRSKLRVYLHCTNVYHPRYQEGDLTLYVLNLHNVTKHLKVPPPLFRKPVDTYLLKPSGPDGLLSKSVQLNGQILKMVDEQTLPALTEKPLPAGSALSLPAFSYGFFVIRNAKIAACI
Put plainly: Inhibition of heparanase activity (degradation of labeled ECM heparan sulfate). The class given is biochemical. Conditions: 24 hours incubation with labeled ECM. As to the method:
Heparanase is an endoglucuronidase capable of degrading […] (HS) at specific intrachain sites.
The ability of compounds of the present invention to inhibit lymphomacell derived heparanase is tested in the assay system described by Vlodavsky et al., Cancer Research 43, 2704-2711 (1983). […] labeled ECM is incubated for 24 hours with ESb mouse lymphoma heparanase in the presence of various concentrations of the oligomers tested. Degradation of the HS is followed by gel filtration of the supematants. Heparanase activity is expressed as the total amount of labeled low-molecular-weight fragments released from the EMC substrate.

Assay [2] concerns human fixed thrombin activated platelets. As to the kind of experiment: Platelet aggregation inhibition (fibrinogen-induced). The class given is cell-based. The settings on record: human fibrinogen added. As to the method:
The method for measuring platelet aggregation inhibition is essentially that of Ruggeri, et al., Proc. Natl. Acad. Sci. USA, 83, 5708-5712 (1986), using formalin-fixed platelets as prepared by Plow, et al., Proc. Natl. Acad. Sci. USA, 79, 3711-3715 (1982). A given amount of the compound of the present invention or other compound to be tested (10 to 100 µl of a 1 mg/ml solution) is incubated at 37°C with 400 µl of human fixed thrombin activated platelets for 2 minutes. 12.5 µl of human fibrinogen solution is added and aggregation is monitored using a platelet aggregation profiler (Model PAP-4). Controls consist of fibrinogen added to incubated platelets and the resulting aggregation is considered as 100%. Percent inhibition in the presence of a given concentration of test compound versus concentration of the compound is plotted and the concentration required to give 50% inhibition (IC50) is determined.

A value given as a limit tells only on which side of the number the result lay.

On to `Cc1cc(O)c(Cc2cc(O)c(Cc3cc(O)c(Cc4cc(O)c(Cc5cc(O)c(Cc6cc(O)c(Cc7cc(O)c(Cc8cc(O)ccc8CCC(=O)O)cc7CCC(=O)O)cc6CCC(=O)O)cc5CCC(=O)O)cc4CCC(=O)O)cc3CCC(=O)O)cc2CCC(=O)O)cc1CCC(=O)O` [Ex 4, 5-[4-[4-[4-[4-[4-[4-[[2-(2-carboxyethyl)-5-hydroxy]benzyl]-[2-(2-carboxyethyl)-5-hydroxy]benzyl]-[2-(2-carboxyethyl)-5-hydroxy]benzyl]-[2-(2-carboxyethyl)-5-hydroxy]benzyl]-[2-(2-carboxyethyl)-5-hydroxy]benzyl]-[2-(2-carboxyethyl)-5-hydroxy]benzyl]-[2-(2-carboxyethyl)-5-hydroxy]benzyl]-4-hydroxy-2-methylhydrocinnamic acid], for which the “% Inhibition of Heparanase Activity (5µg/ml)” value in assay [1] stood at 2%. In addition, the “Platelet Aggregation IC50” value in assay [2] was greater than 1000 µg/mL.
